From PubChem BioAssay AID246 (DTP/NCI, 2004)
Values joined by “and” are separate entries in the source; they are usually repeats but may differ in a detail not shown here. Equal entries are not always repeated. Inconclusive results and toxic doses are left out.

Test system: BDF1 mice, P1081 chloroleukemia ip, survival T/C
Assay: NCI In Vivo Anticancer Drug Screen. Data for tumor model P1081 Chloroleukemia (intraperitoneal) in B6D2F1 (BDF1) mice
Details: endpoint: mean survival time, higher = longer survival
Procedure: The antitumor activity of compounds was measured in mice bearing transplantable tumors. Survival or tumor size were measured and the results are expressed as the measurement made in the treated group (T) divided by the measurement made in the vehicle treated control group (C). The tumor model used in this assay is P1081 Chloroleukemia (intraperitoneal) in B6D2F1 (BDF1) mice

[1] = dose: 12.5 mg/kg/injection, schedule: Q01DX Z (ip), vehicle: carboxymethylcellulose (CMC)
[2] = dose: 16.0 mg/kg/injection, schedule: Q01DX010 (ip), vehicle: saline
[3] = dose: 25.0 mg/kg/injection, schedule: Q01DX Z (ip), vehicle: carboxymethylcellulose (CMC)
[4] = dose: 50.0 mg/kg/injection, schedule: Q01DX Z (ip), vehicle: carboxymethylcellulose (CMC)
[5] = dose: 100.0 mg/kg/injection, schedule: Q01DX Z (ip), vehicle: carboxymethylcellulose (CMC)
[6] = dose: 37.5 mg/kg/injection, schedule: Q01DX Z (ip), vehicle: carboxymethylcellulose (CMC)
[7] = dose: 75.0 mg/kg/injection, schedule: Q01DX Z (ip), vehicle: carboxymethylcellulose (CMC)
[8] = dose: 150.0 mg/kg/injection, schedule: Q01DX Z (ip), vehicle: carboxymethylcellulose (CMC)
[9] = dose: 6.25 mg/kg/injection, schedule: Q01DX Z (ip), vehicle: carboxymethylcellulose (CMC)
[10] = dose: 62.5 mg/kg/injection, schedule: Q01DX010 (ip), vehicle: saline
[11] = dose: 125.0 mg/kg/injection, schedule: Q01DX010 (ip), vehicle: saline
[12] = dose: 250.0 mg/kg/injection, schedule: Q01DX010 (ip), vehicle: saline
[13] = dose: 500.0 mg/kg/injection, schedule: Q01DX010 (ip), vehicle: saline

Compound: C1CN1c1nc(N2CC2)nc(N2CC2)n1
- T/C (dose: 0.03 mg/kg/injection, schedule: Q01DX Z (ip), vehicle: saline): 92 % of control
- T/C (dose: 0.06 mg/kg/injection, schedule: Q01DX Z (ip), vehicle: saline): 107 % of control
- T/C (dose: 0.13 mg/kg/injection, schedule: Q01DX010 (ip), vehicle: saline): 95 % of control and 100 % of control
- T/C (dose: 0.25 mg/kg/injection, schedule: Q01DX010 (ip), vehicle: saline): 94 % of control
- T/C (dose: 0.25 mg/kg/injection, schedule: Q01DX Z (ip), vehicle: saline): 122 % of control and 102 % of control
- T/C (dose: 0.5 mg/kg/injection, schedule: Q01DX010 (ip), vehicle: saline): 109 % of control
- T/C (dose: 0.5 mg/kg/injection, schedule: Q01DX Z (ip), vehicle: saline): 121 % of control and 90 % of control
- T/C (dose: 1.0 mg/kg/injection, schedule: Q01DX010 (ip), vehicle: saline): 88 % of control
- T/C (dose: 1.0 mg/kg/injection, schedule: Q01DX Z (ip), vehicle: saline): 102 % of control
- T/C (dose: 24.0 micrograms/kg/injection, schedule: Q01DX Z (ip), vehicle: saline): 89 % of control
- T/C (dose: 48.0 micrograms/kg/injection, schedule: Q01DX Z (ip), vehicle: saline): 96 % of control
- T/C (dose: 95.0 micrograms/kg/injection, schedule: Q01DX Z (ip), vehicle: saline): 98 % of control
- T/C (dose: 190.0 micrograms/kg/injection, schedule: Q01DX Z (ip), vehicle: saline): 89 % of control

Compound: CCCCn1cnc2c(=S)nc[nH]c21
- T/C [1]: 105 % of control
- T/C [2]: 115 % of control
- T/C [3]: 98 % of control
- T/C [4]: 114 % of control
- T/C [5]: 98 % of control
- T/C (dose: 128.0 mg/kg/injection, schedule: Q01DX010 (ip), vehicle: saline): 95 % of control

Compound: O=C(Nc1ccc(C2=NCCCN2)cc1)c1ccc(NC(=O)c2ccc(C3=NCCCN3)cc2)cc1
- T/C (dose: 1.95 mg/kg/injection, schedule: Q01DX Z (ip), vehicle: water): 123 % of control
- T/C (dose: 3.9 mg/kg/injection, schedule: Q01DX Z (ip), vehicle: carboxymethylcellulose (CMC)): 157 % of control
- T/C (dose: 3.9 mg/kg/injection, schedule: Q01DX Z (ip), vehicle: water): 193 % of control
- T/C (dose: 7.8 mg/kg/injection, schedule: Q01DX Z (ip), vehicle: water): 202 % of control
- T/C (dose: 15.6 mg/kg/injection, schedule: Q01DX Z (ip), vehicle: carboxymethylcellulose (CMC)): 92 % of control
- T/C (dose: 15.6 mg/kg/injection, schedule: Q01DX Z (ip), vehicle: water): 86 % of control

Compound: CC[C@]1(O)C[C@H]2CN(CCc3c([nH]c4ccccc34)[C@@](C(=O)OC)(c3cc4c(cc3OC)N(C=O)[C@H]3[C@@](O)(C(=O)OC)[C@H](OC(C)=O)[C@]5(CC)C=CCN6CC[C@]43[C@@H]65)C2)C1
- T/C (dose: 0.06 mg/kg/injection, schedule: Q01DX Z (ip), vehicle: water): 112 % of control
- T/C (dose: 1.0 mg/kg/injection, schedule: Q01DX Z (ip), vehicle: water): 118 % of control

Compound: O=C1CCC(N2C(=O)c3ccccc3C2=O)C(=O)N1 (configuration not stated)
- T/C (dose: 18.75 mg/kg/injection, schedule: Q01DX Z (ip), vehicle: carboxymethylcellulose (CMC)): 89 % of control
- T/C [6]: 98 % of control
- T/C [7]: 94 % of control
- T/C [8]: 94 % of control

Compound: CN(C)c1ccc(/C=C/c2ccnc3ccccc23)cc1
- T/C (dose: 1.56 mg/kg/injection, schedule: Q01DX Z (ip), vehicle: water): 100 % of control
- T/C (dose: 3.12 mg/kg/injection, schedule: Q01DX Z (ip), vehicle: water): 94 % of control
- T/C (dose: 5.0 mg/kg/injection, schedule: Q01DX010 (ip), vehicle: saline): 111 % of control and 100 % of control
- T/C [9]: 110 % of control
- T/C (dose: 6.25 mg/kg/injection, schedule: Q01DX Z (ip), vehicle: water): 101 % of control
- T/C (dose: 10.0 mg/kg/injection, schedule: Q01DX010 (ip), vehicle: saline): 110 % of control and 100 % of control
- T/C [1]: 115 % of control
- T/C (dose: 12.5 mg/kg/injection, schedule: Q01DX Z (ip), vehicle: water): 107 % of control
- T/C (dose: 20.0 mg/kg/injection, schedule: Q01DX010 (ip), vehicle: saline): 111 % of control and 100 % of control
- T/C [3]: 102 % of control
- T/C (dose: 40.0 mg/kg/injection, schedule: Q01DX010 (ip), vehicle: saline): 111 % of control and 95 % of control
- T/C [4]: 119 % of control and 97 % of control
- T/C [5]: 104 % of control

Compound: NC(=O)c1cn(C2OC(CO)C(O)C2O)c2ncnc(N)c12 (configuration not stated)
- T/C (dose: 0.25 mg/kg/injection, schedule: Q01DX Z (ip), vehicle: carboxymethylcellulose (CMC)): 102 % of control

Compound: O=C1C(NC(=O)C2CCCCC2)=C(N2CC2)C(=O)C(NC(=O)C2CCCCC2)=C1N1CC1
- T/C (dose: 4.7 mg/kg/injection, schedule: Q01DX Z (ip), vehicle: carboxymethylcellulose (CMC)): 118 % of control
- T/C (dose: 9.4 mg/kg/injection, schedule: Q01DX Z (ip), vehicle: carboxymethylcellulose (CMC)): 109 % of control and 103 % of control
- T/C (dose: 18.8 mg/kg/injection, schedule: Q01DX Z (ip), vehicle: carboxymethylcellulose (CMC)): 117 % of control
- T/C (dose: 25.0 mg/kg/injection, schedule: Q01DX010 (ip), vehicle: saline): 90 % of control
- T/C [6]: 112 % of control and 117 % of control
- T/C (dose: 50.0 mg/kg/injection, schedule: Q01DX010 (ip), vehicle: saline): 90 % of control
- T/C [7]: 109 % of control
- T/C (dose: 100.0 mg/kg/injection, schedule: Q01DX010 (ip), vehicle: saline): 90 % of control
- T/C [8]: 116 % of control
- T/C (dose: 300.0 mg/kg/injection, schedule: Q01DX Z (ip), vehicle: carboxymethylcellulose (CMC)): 109 % of control
- T/C (dose: 600.0 mg/kg/injection, schedule: Q01DX Z (ip), vehicle: carboxymethylcellulose (CMC)): 88 % of control

Compound: CC(=O)N(C)C
- T/C [10]: 100 % of control
- T/C [11]: 90 % of control and 95 % of control
- T/C [12]: 90 % of control and 95 % of control
- T/C [13]: 90 % of control and 95 % of control

Compound: CCOC(N)=O
- T/C [11]: 110 % of control and 100 % of control
- T/C (dose: 125.0 mg/kg/injection, schedule: Q01DX Z (ip), vehicle: saline): 95 % of control and 102 % of control
- T/C [12]: 90 % of control and 100 % of control
- T/C (dose: 250.0 mg/kg/injection, schedule: Q01DX Z (ip), vehicle: saline): 100 % of control and 101 % of control
- T/C [13]: 90 % of control and 100 % of control
- T/C (dose: 500.0 mg/kg/injection, schedule: Q01DX Z (ip), vehicle: saline): 92 % of control

Compound: OCC1OC(n2cnc3c(Cl)ncnc32)C(O)C1O (configuration not stated)
- T/C (dose: 2.5 mg/kg/injection, schedule: Q01DX Z (ip), vehicle: carboxymethylcellulose (CMC)): 103 % of control
- T/C [10]: 95 % of control
- T/C (dose: 62.5 mg/kg/injection, schedule: Q01DX Z (ip), vehicle: carboxymethylcellulose (CMC)): 95 % of control
- T/C [11]: 90 % of control
- T/C (dose: 125.0 mg/kg/injection, schedule: Q01DX Z (ip), vehicle: carboxymethylcellulose (CMC)): 91 % of control
- T/C [12]: 100 % of control
- T/C (dose: 250.0 mg/kg/injection, schedule: Q01DX Z (ip), vehicle: carboxymethylcellulose (CMC)): 118 % of control and 95 % of control
- T/C [13]: 100 % of control
- T/C (dose: 500.0 mg/kg/injection, schedule: Q01DX Z (ip), vehicle: carboxymethylcellulose (CMC)): 98 % of control and 104 % of control

Compound: C=CC(CN1CC1)OC(C)=O (configuration not stated)
- T/C (dose: 0.24 mg/kg/injection, schedule: Q01DX Z (ip), vehicle: carboxymethylcellulose (CMC)): 108 % of control
- T/C (dose: 0.47 mg/kg/injection, schedule: Q01DX Z (ip), vehicle: carboxymethylcellulose (CMC)): 116 % of control
- T/C (dose: 0.94 mg/kg/injection, schedule: Q01DX Z (ip), vehicle: carboxymethylcellulose (CMC)): 103 % of control
- T/C (dose: 3.75 mg/kg/injection, schedule: Q01DX Z (ip), vehicle: carboxymethylcellulose (CMC)): 194 % of control
- T/C (dose: 4.0 mg/kg/injection, schedule: Q01DX010 (ip), vehicle: saline): 150 % of control
- T/C (dose: 8.0 mg/kg/injection, schedule: Q01DX010 (ip), vehicle: saline): 160 % of control
- T/C [2]: 170 % of control

Compound: N#CCSc1ncnc2nc[nH]c12
- T/C [9]: 119 % of control
- T/C (dose: 15.0 mg/kg/injection, schedule: Q01DX010 (ip), vehicle: saline): 110 % of control
- T/C (dose: 30.0 mg/kg/injection, schedule: Q01DX010 (ip), vehicle: saline): 105 % of control and 95 % of control
- T/C [4]: 101 % of control
- T/C (dose: 60.0 mg/kg/injection, schedule: Q01DX010 (ip), vehicle: saline): 110 % of control
